This assay concerns the target Potassium voltage-gated channel subfamily KQT member 2 (Rattus norvegicus) (UniProt O88943). Nature of the assay: KCNQ2 point mutants response to potentiator, late-stage follow-up, mechanism study for KCNQ2 potentiator project, cell-based, rat KCNQ2, manual patch clamp, mode of action (AID 2432). The conditions noted are these: HEK293-KCNQ2 manual patch clamp, peak current ratio, at 10 µM; for V1/2: stronger effect = lower value. Background: Patch clamp records ionic current or voltage across a cell membrane.

Each structure is given as a SMILES string.

Here are results for one compound from PubChem BioAssay AID2432 (Johns Hopkins Ion Channel Center, 2010).

Potassium voltage-gated channel subfamily KQT member 2 (Rattus norvegicus), sequence (O88943 whole entry, looked up): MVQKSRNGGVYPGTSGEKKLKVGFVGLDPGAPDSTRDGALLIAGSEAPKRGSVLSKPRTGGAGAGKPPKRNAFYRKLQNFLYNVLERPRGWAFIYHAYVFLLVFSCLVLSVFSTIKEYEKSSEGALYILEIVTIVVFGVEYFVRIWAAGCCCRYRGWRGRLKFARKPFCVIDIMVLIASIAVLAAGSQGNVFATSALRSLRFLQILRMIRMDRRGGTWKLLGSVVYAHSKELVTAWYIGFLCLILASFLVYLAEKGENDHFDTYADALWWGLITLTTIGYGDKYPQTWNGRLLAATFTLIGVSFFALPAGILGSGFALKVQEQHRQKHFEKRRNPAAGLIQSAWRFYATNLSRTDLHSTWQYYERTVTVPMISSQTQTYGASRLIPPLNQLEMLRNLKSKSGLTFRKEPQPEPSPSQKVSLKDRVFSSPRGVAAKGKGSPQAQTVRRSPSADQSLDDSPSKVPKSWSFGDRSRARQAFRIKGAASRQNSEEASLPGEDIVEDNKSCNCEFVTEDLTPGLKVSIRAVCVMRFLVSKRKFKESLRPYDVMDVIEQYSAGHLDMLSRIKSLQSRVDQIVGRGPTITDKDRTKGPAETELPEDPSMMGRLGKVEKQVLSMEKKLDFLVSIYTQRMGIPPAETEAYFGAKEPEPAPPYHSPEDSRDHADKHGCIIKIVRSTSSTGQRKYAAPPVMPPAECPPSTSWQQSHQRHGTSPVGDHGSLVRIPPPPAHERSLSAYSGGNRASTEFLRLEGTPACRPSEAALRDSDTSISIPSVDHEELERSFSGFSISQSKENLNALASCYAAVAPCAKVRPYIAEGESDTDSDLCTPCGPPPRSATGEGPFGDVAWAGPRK

`O=C(Nc1ccc(Cl)nc1)c1ccc(F)cc1`: the current ratio I/I0 was 1.9 (stronger effect = higher value); 1.8 (measured here: L249A mutant current ratio, stronger effect = higher value); 2.3 (measured here: L249A/L275A double mutant current ratio, stronger effect = higher value); 1.8 (measured here: L275A mutant current ratio, stronger effect = higher value); 1.7 (measured here: W236L mutant current ratio, stronger effect = higher value). The V1/2 (measured here: L249A mutant V1/2) is -41.8 mV; the V1/2 (measured here: L249A/L275A double mutant V1/2) is -9.1 mV; the V1/2 (measured here: L275A mutant V1/2) was -28.3 mV; the V1/2 (measured here: W236L mutant V1/2) is -38.6 mV; the V1/2 (measured here: WT half-activation voltage with compound) is -55.3 mV. Moreover, for the setting “measured here: WT deactivation time constant, stronger effect = higher value”, the deactivation tau worked out at 172 ms.
